Source: patent publication US12234233B2, “Crystal form of phosphodiesterase inhibitor, preparation method therefor and use thereof” (TRANSTHERA SCIENCES (NANJING), INC., priority 2019, dated 2025)
Like-named read-outs stand apart in the source and are kept apart here.

What was measured:
[1] = Stability test of crystal form I (influencing factors); format: physicochemical
Protocol: Test substances: the crystal form I was prepared by example 2 of the present invention.
Method: the appropriate amount of crystal form I samples were taken and placed openly at 60° C. and RH 92.5% under light; and the samples were collected on day 5, day 10, and day 30 to investigate changes in the trait, content, and moisture of the samples.

[2] = Pharmacokinetic evaluation in rats; format: in vivo, male SD rats
Protocol: Test substances: the compound of formula (I) was prepared by example 1 of the present invention, and the crystal form I was prepared by example 2 of the present invention.
Administration to Animals and Sample Collection:
(§1) the compound of formula (I) for the experiment was dissolved with 2% DMSO+10% PEG400+88% (28% HP-3-CD) physiological saline to prepare a solution; the solution of the test substance was administered to SD rats by gavage at a dose of 5.0 mg/kg; and the blood sampling time points were 15 min, 30 min, 1 h, 2 h, 4 h, 6 h, 8 h and 24 h after administration.
as §1, with “The compound” for “the compound”, “by intravenous bolus” for “by gavage”, “of 1” for “of 5.0”, “were 5 min,” for “were”
The crystal form I for the experiment was dissolved with 5% DMSO+10% PEG400+85% (20% captisol) physiological saline solution to prepare a solution; the solution of the test substance was administered to SD rats by gavage at a dose of 60.0 mg/kg; and the blood sampling time points were 15 min, 30 min, 1 h, 2 h, 4 h, 8 h, 24 h, 30 h and 48 h after administration.
The crystal form I for the experiment was dissolved with 2% DMSO+10% PEG400+88% (28% HP-β-CD) physiological saline to prepare a solution; the solution of the test substance was administered to SD rats by intravenous bolus at a dose of 5 mg/kg; and the blood sampling time points were 5 min, 15 min, 30 min, 1 h, 4 h, 8 h, 12 h and 24 h after administration.
Compound of formula (I): the ordinary SD rats were used and fixed; the tails of the rats were heated in a water bath 10 minutes before each time point; and about 100 μL of blood was collected via a tail vein, and then placed in an anticoagulation tube containing EDTA-K2. The blood sample was centrifuged at 8000 rpm at 4° C. for 6 min to obtain a plasma sample, which was prepared within 30 minutes after blood collection. The plasma was stored in a refrigerator at −80° C. before the test.
Crystal form I: the rats were subjected to jugular vein cannulation (JVC); each time, about 0.35 ml of blood was collected from the rats via a jugular vein cannula into a centrifuge tube containing 5 μl of 15% EDTA-K2; the mixture was gently mixed to obtain a homogeneous mixture, and then the centrifuge tube was placed in an ice bath immediately. Within 1 hour after collecting whole blood, the mixture was centrifuged at 4° C. and 2400×g for 5 minutes, and the supernatant was immediately collected to obtain a plasma sample. The plasma was stored in a refrigerator at −80° C. before the test.
the plasma sample to be tested was taken out from the −80° C. refrigerator, subjected to natural melting at room temperature, and then vortexed for 5 min; […] of the plasma sample was precisely pipetted into a 1.5 mL centrifuge tube; […] of the internal standard working solution (tolbutamide in methanol) at a concentration of 100 ng/mL was added, and the mixture was mixed homogeneously; the homogeneous mixture was vortexed for 5 min, and then centrifuged at 12000 rpm for 5 min; 50 μL of the supernatant was precisely pipetted into a 96-well plate pre-filled with 150 μL of water/well; and the plate was vortexed for 5 min for homogenization, and subjected to LC-MS/MS assay, with a sample loading volume of 5 μL. […]

[3] = Stability test of different crystal forms; format: physicochemical
Protocol: Test substances: the crystal form I was prepared by example 2 of the present invention, the crystal form II was prepared by example 16 of the present invention, the crystal form III was prepared by example 20 of the present invention, the crystal form IV was prepared by example 24 of the present invention, the crystal form V was prepared by example 25 of the present invention, the crystal form VI was prepared by example 27 of the present invention, and the crystal form VII was prepared by example 31 of the present invention.
Method: the appropriate amount of different test substances were taken, and placed at 105° C. for 3 days, and at 60° C. and RH 92.5% under light for 5 days and 10 days, respectively; and the samples were collected on day 0, day 3, day 5 and day 10 to investigate the changes in the trait and content of the samples.
Table 5 and Table 6 show the results of the trait and content after placement at 105° C. for 3 days. Table 7 and Table 8 show the results of the trait and content after placement at 60° C. and RH 92.5% under light for 5 days. Table 9 and Table 10 show the results of the trait and content after placement at RH 92.5% under light for 10 days.

[4] = Placed openly at 60° C. for 5 days
[5] = Placed openly at 60° C. for 10 days
[6] = Placed openly at 60° C. for 30 days
[7] = Placed openly at RH 92.5% for 5 days
[8] = Placed openly at RH 92.5% for 10 days
[9] = Placed openly at RH 92.5% for 30 days
[10] = Placed openly under light for 5 days
[11] = Placed openly under light for 10 days
[12] = placed openly under light for 30 days
[13] = male SD rats, gavage 60.0 mg/kg
[14] = male SD rats, intravenous bolus 5 mg/kg

For `CCc1cc2c(N3CCC(C)(OC)CC3)c(C#N)c(=O)[nH]c2cn1` [Crystal form I, 6-ethyl-4-(4-methoxy-4-methylpiperidin-1-yl)-2-oxo-1,2-dihydro-1,7-diazanaphthal ene-3-carbonitrile], the Content ([1]; 0 day) was 99.7%, the Moisture ([1]; 0 day) was 0.08% and the Trait ([1]; 0 day) was “Yellow powder”. The Content [1, 4] was 99.8%, the Moisture [1, 4] was 0.06% and the Trait [1, 4] was “Yellow powder”. The Content [1, 5] was 99.8%, the Moisture [1, 5] was 0.10% and the Trait [1, 5] was “Yellow powder”. For the same molecule, the Content [1, 6] was 100.1%, the Moisture [1, 6] was 0.12% and the Trait [1, 6] was “Yellow powder”. For the same molecule, the Content [1, 7] was 99.7%, the Moisture [1, 7] was 0.04% and the Trait [1, 7] was “Yellow powder”. The Content [1, 8] was 100.3%, the Moisture [1, 8] was 0.09% and the Trait [1, 8] was “Yellow powder”. For the same molecule, the Content [1, 9] was 100.5%, the Moisture [1, 9] was 0.09% and the Trait [1, 9] was “Yellow powder”. For the same molecule, the Content [1, 10] was 99.7%, the Moisture [1, 10] was 0.06% and the Trait [1, 10] was “Yellow powder”. For the same molecule, the Content [1, 11] was 99.3%, the Moisture [1, 11] was 0.13% and the Trait [1, 11] was “Yellow powder”. The Content [1, 12] was 100.0%, the Moisture [1, 12] was 0.09% and the Trait [1, 12] was “Yellow powder”. The Tmax ([2]; Sprague-Dawley, rat, plasma, po, male SD rats, gavage 60.0 mg/kg) was 1.67 h, the AUC(0-t) ([2]; Sprague-Dawley, rat, plasma, po, male SD rats, gavage 60.0 mg/kg, read-out: AUClast PO) was 40100 ng·h/mL and the AUC(0-t) ([2]; Sprague-Dawley, rat, plasma, male SD rats, intravenous bolus 5 mg/kg, read-out: AUClast iv) was 2450 ng·h/mL. For the same molecule, the pharmacokinetic characteristics ([2]; conclusion from Table 2, rats) was “excellent pharmacokinetic characteristics”, the “AUClast PO/Dose” value [2, 13] was 667.8 h*ng/mL per mg/kg and the “tz1/2 PO” value [2, 13] was 3.91 h. For the same molecule, the “AUClast iv/Dose” value [2, 14] was 489.4 h*ng/mL per mg/kg, the Cl_obs iv [2, 14] was 35.5 mL/min/kg and the Vz_obs iv [2, 14] was 0.898 L/kg. The tz1/2 iv [2, 14] was 0.453 h, the Content ([3]; 0 day) was 99.7% and the Trait ([3]; 0 day) was “Yellow powder”. It also gave a Content ([3]; Placed at 60° C. for 5 days) of 99.8%, a Content ([3]; Placed at RH 92.5% for 5 days) of 99.7% and a Content ([3]; Placed at RH 92.5% for 10 days) of 100.3%. For the same molecule, the Trait ([3]; Placed at RH 92.5% for 10 days) was “Yellow powder”, the Content ([3]; Placed under light for 5 days) was 99.7% and the Content ([3]; Placed under light for 10 days) was 99.3%. For the same molecule, the Trait ([3]; Placed under light for 10 days) was “Yellow powder”.
